In publication PMC4007625, “A phase I study of AST1306, a novel irreversible EGFR and HER2 kinase inhibitor, in patients with advanced solid tumors” (Journal of Hematology & Oncology, 2014):

Tests used:
clinical = details: human, in vivo; for AUC(0-inf): AUC0-∞
Method: This was the first-in-human phase I dose-escalation study of AST1306 for patients with advanced solid tumors. AST1306 was orally administered without food for one day followed by two days off to evaluate single dose PK profiles. After that, it was continuously administered for 21 days and two days off to assess multiple dose PK profiles and safety. […] Three times daily in three dose levels (800 mg TID, 1000 mg TID and 1200 mg TID) were explored subsequently. Treatment was then repeated at the same dose level in 28-day cycles until unacceptable toxicities, disease progression or the patient’s withdrew from the study. PK extension study was performed to enroll additional patients up to at least eight patients per dose cohort in three dose levels (MTD, one or two doses level lower than the MTD) for further evaluation of PK profiles.
All PK sampling was performed in the first cycle. Plasma concentrations of AST1306 single-day dosing were determined at the following distinct time points: pre-dose, 0.5 h, 1 h, 1.5 h, 2 h, 3 h, 4 h, 6 h, 8 h, 10 h, 12 h, 24 h, 36 h, and 48 h after the single dose administration in the 400 mg QD and 800 mg QD dose cohorts. For the next five dose cohorts with twice daily (once every 12 hours) administration, the time points of plasma sample collection were as follows: pre-dose, 0.5 h, 1 h, 1.5 h, 2 h, 3 h, 4 h, 6 h, 8 h, and 12 h after the first dose administration, and pre-dose, 1 h, 2 h, 3 h, 4 h, 6 h, 8 h, 12 h, and 24 h after the second dose administration. Three dose cohorts with three times daily (once every 8 hours) administration were further investigated with distinct time points for plasma collecting (pre-dose, 0.5 h, 1 h, 1.5 h, 2 h, 3 h, 4 h, 6 h, and 8 h after the first dose administration; 1 h, 2 h, 3 h, 4 h, 5 h, 6 h, and 8 h after the second dose administration; 1 h, 2 h, 3 h, 4 h, 8 h, 12 h, 24 h, and 36 h after the third dose administration). PK parameters of AST1306 were also determined on days 10, 23 (pre-dose and 2 h after the first dosing), and 24 (steady state, the same time points as the first-day dosing) of continuous treatment. The PK sampling schedule for the PK extension phase was totally the same as that for the dose escalation study.
PK analysis was conducted using Phoenix WinNonlin® software (version 6.1, Pharsight, Mountainview, CA). Standard non-compartmental methods were used to calculate the area under the plasma concentration-time curve over the time interval from 0 to 24 h (AUC0–24,ss), maximum measured concentration of the analyte in plasma (Cmax), and terminal half-life of the analyte in plasma (t1/2). Time from dosing to the maximum concentration of the analyte in plasma (tmax,) was reported as a median value. The concentration at the trough level was determined using the concentration at 24 h (C24) on steady state days.
The power model method was used to assess the dose proportionality. The differences between fed and fasting conditions were assessed by ANOVA, and 90% confidence intervals for ratios were given.

[1] = Food-effect study, two-way crossover, single dose; format: in vivo, human; details: for apparent oral clearance (CL/F) / Tmax / AUC(0-inf) / AUC(0-t) / Cmax / half-life: 1000 mg single oral dose; for apparent oral clearance (CL/F) / AUC(0-inf) / AUC(0-t) / Cmax / half-life: geometric mean (range); for Tmax / AUC(0-inf) / AUC(0-t) / Cmax / half-life: plasma, po; for Tmax: (range); for half-life: read-out: t1/2z (converted)
Method: Figure S1). On day 1, 6 subjects were fasted and 6 were fed, and all 12 subjects received a single dose of AST1306. […] On “fasting” days (day 1 or 4), subjects were required to fast for a minimum of 2 h prior to dosing, and for at least 1 h post-dosing. […] PK sampling then took place on day 1 and day 4. The PK sampling time points were pre-dose, 0.5, 1, 1.5, 2, 2.5, 3, 4, 6, 8, 12, and 24 hours after dosing. The power model method was used to assess the dose proportionality.

EGFR = test system: EGFR; design: method as in PMID 21789172, PMID 18408761, PMID 15728811, PMID 15737014, PMID 17085664; details: cited from earlier work
HER2 = test system: HER2; design: method as in PMID 21789172, PMID 18408761, PMID 15728811, PMID 15737014, PMID 17085664; details: preclinical; read-out: IC50 inhibiting HER2; cited from earlier work
EGFR T790M mutant = test system: EGFR T790M mutant; design: method as in PMID 21789172, PMID 18408761, PMID 15728811, PMID 15737014, PMID 17085664; details: cited from earlier work
[2] = test system: human tumor xenograft models that expressed or overexpressed HER family members; design: method as in PMID 21789172; details: especially HER2 overexpression or EGFR T790M mutant tumors; cited from earlier work
[3] = human, 1000 mg, fed, high-fat breakfast (n =12)

## C=CC(=O)Nc1ccc2ncnc(Nc3ccc(OCc4cccc(F)c4)c(Cl)c3)c2c1 [AST1306]
clinical
  Tmax: 2.65 (43.8) h
  multiple-dose vs single-dose exposure (mean accumulation ratio R, AUCss day 23–24 / AUC0-24h day 1): no more than 3 fold
  t1/2z: 5.56 (51.6) h
clinical; 400 mg
  AUC0-24 h: 116 ng·h/mL
  AUC0-∞: 119 ng·h/mL
  AUC(0-t): 116 ng·h/mL
  Cmax: 22.6 ng/mL
  R_AUC (accumulation ratio, AUCss days 23–24 / AUC0-24h day 1): 2.81
  Tmax: 2.00 h
  t1/2z: 4.66 h
  λz: 0.149 h⁻¹
clinical; 600 mg
  Cmax3: 64.5 (69.4) ng/mL
clinical; 800 mg
  Cmax: 50.0 (16.0) ng/mL
  Cmax2: 74.3 (20.4) ng/mL
clinical; 800 mg, Cmax
  Cmax: 67.7 ng/mL
clinical; 1000 mg
  AUC0-24 h: 696 (57.6) h*ng/mL
  AUC0-∞: 792 (54.1) h*ng/mL
  AUC(0-t): 781 (54.7) h*ng/mL
  Cmax: 75.0 (52.1) ng/mL
  Cmax3: 89.7 (42.1) ng/mL
  AUC(0-inf): 1430 ng·h/mL
clinical; 1000 mg, AUC0-24 h
  AUC(0-t): 1130 ng·h/mL
clinical; 1000 mg, AUC0-t
  AUC(0-t): 1420 ng·h/mL
clinical; 1000 mg, Cmax
  Cmax: 47.3 ng/mL
clinical; 1200 mg
  Cmax: 50.9 (70.6) ng/mL
  Cmax3: 210.0 (81.5) ng/mL
clinical; 1200 mg, Cmax
  Cmax: 61.9 ng/mL
clinical; 1500 mg
  Cmax2: 103.0 (25.8) ng/mL
  R_AUC (accumulation ratio, AUCss days 23–24 / AUC0-24h day 1): 0.87 (32.0)
  Tmax: 1.92 (30.5) h
  t1/2z: 3.48 (12.8) h
  λz: 0.202 (13.3) 1/h
  AUC(0-inf): 1200 ng·h/mL
clinical; 1500 mg, AUC0-24 h
  AUC(0-t): 997 ng·h/mL
clinical; 1500 mg, AUC0-t
  AUC(0-t): 1190 ng·h/mL
clinical; 1500 mg, Cmax
  Cmax: 57.1 ng/mL
clinical; gMean terminal half-life
  half-life: 3.33 to 7.57 h
clinical; po
  time to Cmax after oral administration: 1.83 to 3.67 h
clinical; t1/2
  half-life: 3 to 5 h
clinical; terminal half-life
  half-life: 3.48 to 5.56 h
[1]; fasted (n =12)
  apparent oral clearance (CL/F): 3970 (1370-8890) L/h
[1]; fed, high-fat breakfast (n =12)
  apparent oral clearance (CL/F): 1360 (608-2340) L/h
[1]; human, in vivo, 1000 mg
  Treatment ratio fed/fasted, AUC0-∞: 269 (208-348) %
  Treatment ratio fed/fasted, AUC0–t: 284 (219-368) %
  Treatment ratio fed/fasted, Cmax: 228 (170-305) %
[1]; human, 1000 mg, fasted (n =12)
  Tmax: 2.38 h
  AUC(0-inf): 331 ng·h/mL
  AUC(0-t): 311 ng·h/mL
  Cmax: 70.3 ng/mL
  half-life: 6.99 h
[1]; [3]
  Tmax: 4.25 h
  AUC(0-inf): 814 ng·h/mL
  AUC(0-t): 797 ng·h/mL
  Cmax: 139 ng/mL
  half-life: 4.19 h
EGFR; EGFR and HER2 IC50
  fold more potent than afatinib and dacomitinib: 5-15 fold
EGFR; preclinical, read-out: IC50 inhibiting EGFR
  IC50: 0.5 nM
HER2
  IC50: 3 nM
EGFR T790M mutant; EGFR T790M mutant
  fold more potent than lapatinib: approximately 500 fold
EGFR T790M mutant; preclinical
  IC50: 12 ± 2 nM
[2]
  antitumor activity in xenograft models: showed antitumor activities
